Assay results: PMC7827406, “Structure–Activity Relationship (SAR) Study of Spautin-1 to Entail the Discovery of Novel NEK4 Inhibitors” (International Journal of Molecular Sciences, 2021)
Like-named read-outs stand apart in the source and are kept apart here.

How the values were obtained:
Assay in all cases: biochemical
Design in all cases: Eurofins KinaseProfiler full panel at Km ATP, residual kinase activity (%) relative to DMSO
Abl (Q252H) (h) = target: T1, Abl (Q252H) (h) (Homo sapiens, UniProt P00519, Q252H)
T1 construct: gene ABL1
Method: (§1) Eurofins performed a “Full KP Panel [Km ATP], KinaseProfile” which contains 429 radiometric kinase activity assays. The remaining kinase activity (%) was determined after treatment with the compounds at a concentration of 10 µM (Cfr. supporting information). Since we could not confirm the interaction between Spautin-1 analogues and USP13, a kinase screening was performed using a set of four compounds (Spautin-1 and three analogues) to discover off-targets and identify kinases that are potentially responsible for the reduction in cell viability observed in our screen (Table 2). The KINOMEscan from Eurofins was performed (see Table S1). This screen consists of a competitive binding assay in which the DNA-tagged kinase is incubated with one of the compounds in the presence of immobilized active site binding ligands. Binding of the compounds to the kinase hampers the binding of the kinase to the ligands and this inhibition was quantified by qPCR. The residual kinase activity, which represents the percentage of kinase attached to the immobilized ligands, was determined for 428 kinases at a standard screening concentration of 10 µM of the compounds dissolved in DMSO [61].

PAK1(h) = PAK1(h) (Homo sapiens, UniProt Q13153)
PAK1(h), sequence (Q13153 whole entry): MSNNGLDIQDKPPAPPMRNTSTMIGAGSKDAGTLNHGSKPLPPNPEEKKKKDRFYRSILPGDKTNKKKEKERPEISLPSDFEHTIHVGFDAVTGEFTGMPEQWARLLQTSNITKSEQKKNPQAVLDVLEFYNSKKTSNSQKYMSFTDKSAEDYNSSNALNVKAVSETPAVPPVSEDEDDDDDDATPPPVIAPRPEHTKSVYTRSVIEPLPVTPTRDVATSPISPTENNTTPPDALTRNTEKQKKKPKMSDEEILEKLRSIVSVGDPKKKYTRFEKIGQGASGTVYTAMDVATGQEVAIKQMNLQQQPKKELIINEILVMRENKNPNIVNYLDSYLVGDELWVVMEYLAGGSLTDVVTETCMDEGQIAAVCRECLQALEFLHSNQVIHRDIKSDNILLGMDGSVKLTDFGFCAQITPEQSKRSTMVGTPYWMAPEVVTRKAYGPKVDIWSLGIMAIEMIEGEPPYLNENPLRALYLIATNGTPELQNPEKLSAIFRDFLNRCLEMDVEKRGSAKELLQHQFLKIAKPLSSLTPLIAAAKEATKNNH
Method: as §1

ErbB4(h) = ErbB4(h) (Homo sapiens, UniProt Q15303)
Method: as §1

GRK6(h) = GRK6(h) (Homo sapiens, UniProt P43250)
GRK6(h), sequence (P43250 whole entry): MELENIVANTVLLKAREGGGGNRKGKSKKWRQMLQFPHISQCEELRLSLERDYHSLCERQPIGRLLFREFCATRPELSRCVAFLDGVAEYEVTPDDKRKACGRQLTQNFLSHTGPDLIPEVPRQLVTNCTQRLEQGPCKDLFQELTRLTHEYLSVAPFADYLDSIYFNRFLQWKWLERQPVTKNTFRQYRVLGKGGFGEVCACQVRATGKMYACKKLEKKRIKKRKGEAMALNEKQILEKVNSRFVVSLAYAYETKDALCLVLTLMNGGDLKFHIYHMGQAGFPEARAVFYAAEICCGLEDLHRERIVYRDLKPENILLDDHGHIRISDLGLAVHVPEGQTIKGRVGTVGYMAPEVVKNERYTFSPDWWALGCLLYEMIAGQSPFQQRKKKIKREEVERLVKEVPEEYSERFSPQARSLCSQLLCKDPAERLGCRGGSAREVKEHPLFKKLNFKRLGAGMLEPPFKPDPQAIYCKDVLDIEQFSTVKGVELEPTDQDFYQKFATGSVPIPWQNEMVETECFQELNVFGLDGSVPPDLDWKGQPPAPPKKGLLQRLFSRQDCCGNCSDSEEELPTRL
Method: as §1

TSSK4(h) = target: T2, TSSK4(h) (Homo sapiens, UniProt Q6SA08)
T2 sequence (Q6SA08 1-328): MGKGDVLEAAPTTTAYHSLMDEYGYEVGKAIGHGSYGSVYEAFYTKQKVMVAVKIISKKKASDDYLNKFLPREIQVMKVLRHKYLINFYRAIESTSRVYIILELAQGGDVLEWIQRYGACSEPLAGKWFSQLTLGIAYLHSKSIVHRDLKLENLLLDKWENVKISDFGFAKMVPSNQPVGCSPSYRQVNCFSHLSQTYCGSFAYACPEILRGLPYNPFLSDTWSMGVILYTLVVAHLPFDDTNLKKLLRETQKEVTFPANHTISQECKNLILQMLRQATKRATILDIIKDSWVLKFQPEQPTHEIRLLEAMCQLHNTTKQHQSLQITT
Method: as §1

SAPK3(h) = target: T3, SAPK3(h) (Homo sapiens, UniProt P53778)
T3 construct: gene MAPK12
T3 sequence (P53778 1-367): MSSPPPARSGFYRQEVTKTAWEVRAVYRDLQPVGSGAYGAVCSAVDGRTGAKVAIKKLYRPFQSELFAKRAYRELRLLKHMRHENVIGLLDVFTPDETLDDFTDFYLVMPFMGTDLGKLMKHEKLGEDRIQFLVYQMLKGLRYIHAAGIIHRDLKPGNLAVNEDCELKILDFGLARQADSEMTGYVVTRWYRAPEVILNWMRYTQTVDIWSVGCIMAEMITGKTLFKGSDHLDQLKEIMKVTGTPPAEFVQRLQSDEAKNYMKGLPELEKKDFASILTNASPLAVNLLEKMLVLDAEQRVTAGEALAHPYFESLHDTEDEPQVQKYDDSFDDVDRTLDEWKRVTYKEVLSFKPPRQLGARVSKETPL
Method: as §1

GRK7(h) = target: T4, GRK7(h) (Homo sapiens, UniProt Q8WTQ7)
T4 sequence (Q8WTQ7 1-553): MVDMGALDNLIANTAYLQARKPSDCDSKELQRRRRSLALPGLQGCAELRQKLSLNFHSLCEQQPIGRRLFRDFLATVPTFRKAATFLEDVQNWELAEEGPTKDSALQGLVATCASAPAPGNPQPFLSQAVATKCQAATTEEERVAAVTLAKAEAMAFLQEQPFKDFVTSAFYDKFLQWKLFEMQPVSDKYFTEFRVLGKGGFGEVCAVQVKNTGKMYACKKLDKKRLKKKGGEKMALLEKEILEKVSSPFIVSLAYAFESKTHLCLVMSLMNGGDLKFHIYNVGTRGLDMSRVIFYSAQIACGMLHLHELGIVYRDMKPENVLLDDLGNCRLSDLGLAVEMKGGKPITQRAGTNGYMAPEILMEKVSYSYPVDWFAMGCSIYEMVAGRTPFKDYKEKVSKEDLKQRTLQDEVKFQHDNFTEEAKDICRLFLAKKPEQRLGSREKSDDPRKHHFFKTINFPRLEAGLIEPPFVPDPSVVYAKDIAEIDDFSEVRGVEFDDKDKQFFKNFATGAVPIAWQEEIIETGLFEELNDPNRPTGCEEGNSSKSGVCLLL
Method: as §1

HIPK3(h) = HIPK3(h) (Homo sapiens, UniProt Q9H422)
Method: as §1

TrkC(h) = target: T5, TrkC(h) (Homo sapiens, UniProt Q16288)
T5 construct: gene NTRK3
T5 sequence (Q16288 whole entry): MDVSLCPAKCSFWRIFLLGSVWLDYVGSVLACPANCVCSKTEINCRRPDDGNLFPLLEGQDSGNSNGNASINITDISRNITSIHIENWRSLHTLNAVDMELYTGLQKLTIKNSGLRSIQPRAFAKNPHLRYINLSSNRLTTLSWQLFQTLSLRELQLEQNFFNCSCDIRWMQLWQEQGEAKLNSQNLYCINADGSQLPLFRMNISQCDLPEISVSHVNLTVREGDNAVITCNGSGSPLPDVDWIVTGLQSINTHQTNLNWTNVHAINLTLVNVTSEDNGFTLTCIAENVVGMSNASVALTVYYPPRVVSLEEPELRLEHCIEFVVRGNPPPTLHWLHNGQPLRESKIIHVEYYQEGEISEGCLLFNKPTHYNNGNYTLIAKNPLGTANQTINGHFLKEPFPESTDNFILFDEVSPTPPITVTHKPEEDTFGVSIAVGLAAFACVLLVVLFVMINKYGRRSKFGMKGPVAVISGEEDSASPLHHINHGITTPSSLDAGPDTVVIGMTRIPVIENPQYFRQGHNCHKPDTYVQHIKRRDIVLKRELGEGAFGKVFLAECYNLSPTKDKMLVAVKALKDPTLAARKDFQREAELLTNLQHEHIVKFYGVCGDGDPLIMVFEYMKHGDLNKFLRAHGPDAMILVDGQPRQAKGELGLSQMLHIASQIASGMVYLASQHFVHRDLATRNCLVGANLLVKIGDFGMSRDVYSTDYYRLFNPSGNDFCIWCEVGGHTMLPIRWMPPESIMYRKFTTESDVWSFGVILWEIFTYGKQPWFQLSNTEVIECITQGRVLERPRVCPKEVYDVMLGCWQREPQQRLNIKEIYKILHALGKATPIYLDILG
Method: as §1

Ret(V804M)(h) = Ret(V804M)(h) (Homo sapiens, UniProt P07949, V804M)
Ret(V804M)(h), sequence (P07949 whole entry V804M): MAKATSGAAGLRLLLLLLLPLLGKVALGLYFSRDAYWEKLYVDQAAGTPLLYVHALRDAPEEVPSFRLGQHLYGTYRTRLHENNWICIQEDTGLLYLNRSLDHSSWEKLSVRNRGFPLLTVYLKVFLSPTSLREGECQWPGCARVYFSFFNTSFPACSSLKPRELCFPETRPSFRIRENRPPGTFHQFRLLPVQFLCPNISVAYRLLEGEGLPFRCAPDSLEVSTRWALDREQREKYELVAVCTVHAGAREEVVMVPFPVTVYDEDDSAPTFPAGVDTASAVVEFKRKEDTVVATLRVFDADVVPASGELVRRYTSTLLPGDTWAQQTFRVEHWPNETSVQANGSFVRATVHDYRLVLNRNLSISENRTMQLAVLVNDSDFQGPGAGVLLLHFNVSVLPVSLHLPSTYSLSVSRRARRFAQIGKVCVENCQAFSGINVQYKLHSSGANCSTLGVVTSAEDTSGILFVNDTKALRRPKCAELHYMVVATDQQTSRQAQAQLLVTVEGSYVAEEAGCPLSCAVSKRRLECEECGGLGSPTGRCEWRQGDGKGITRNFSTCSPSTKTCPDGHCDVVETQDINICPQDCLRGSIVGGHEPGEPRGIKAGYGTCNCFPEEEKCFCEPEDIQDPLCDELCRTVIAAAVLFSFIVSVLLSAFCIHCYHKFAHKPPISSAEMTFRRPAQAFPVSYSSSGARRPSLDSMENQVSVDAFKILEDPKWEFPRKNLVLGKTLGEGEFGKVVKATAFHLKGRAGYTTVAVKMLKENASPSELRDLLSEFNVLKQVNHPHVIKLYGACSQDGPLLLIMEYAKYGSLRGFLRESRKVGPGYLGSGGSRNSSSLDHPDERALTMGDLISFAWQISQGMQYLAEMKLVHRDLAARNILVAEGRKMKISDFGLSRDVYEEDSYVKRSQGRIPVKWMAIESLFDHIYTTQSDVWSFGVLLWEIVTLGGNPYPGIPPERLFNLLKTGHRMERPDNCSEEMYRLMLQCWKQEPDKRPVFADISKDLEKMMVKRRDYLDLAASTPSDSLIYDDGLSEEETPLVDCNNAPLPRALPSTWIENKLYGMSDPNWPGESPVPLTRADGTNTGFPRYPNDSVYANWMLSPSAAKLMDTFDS
Method: as §1

cKit(V560G)(h) = target: T6, cKit(V560G)(h) (Homo sapiens, UniProt P10721, V560G)
T6 construct: gene KIT
T6 sequence (P10721 whole entry V560G): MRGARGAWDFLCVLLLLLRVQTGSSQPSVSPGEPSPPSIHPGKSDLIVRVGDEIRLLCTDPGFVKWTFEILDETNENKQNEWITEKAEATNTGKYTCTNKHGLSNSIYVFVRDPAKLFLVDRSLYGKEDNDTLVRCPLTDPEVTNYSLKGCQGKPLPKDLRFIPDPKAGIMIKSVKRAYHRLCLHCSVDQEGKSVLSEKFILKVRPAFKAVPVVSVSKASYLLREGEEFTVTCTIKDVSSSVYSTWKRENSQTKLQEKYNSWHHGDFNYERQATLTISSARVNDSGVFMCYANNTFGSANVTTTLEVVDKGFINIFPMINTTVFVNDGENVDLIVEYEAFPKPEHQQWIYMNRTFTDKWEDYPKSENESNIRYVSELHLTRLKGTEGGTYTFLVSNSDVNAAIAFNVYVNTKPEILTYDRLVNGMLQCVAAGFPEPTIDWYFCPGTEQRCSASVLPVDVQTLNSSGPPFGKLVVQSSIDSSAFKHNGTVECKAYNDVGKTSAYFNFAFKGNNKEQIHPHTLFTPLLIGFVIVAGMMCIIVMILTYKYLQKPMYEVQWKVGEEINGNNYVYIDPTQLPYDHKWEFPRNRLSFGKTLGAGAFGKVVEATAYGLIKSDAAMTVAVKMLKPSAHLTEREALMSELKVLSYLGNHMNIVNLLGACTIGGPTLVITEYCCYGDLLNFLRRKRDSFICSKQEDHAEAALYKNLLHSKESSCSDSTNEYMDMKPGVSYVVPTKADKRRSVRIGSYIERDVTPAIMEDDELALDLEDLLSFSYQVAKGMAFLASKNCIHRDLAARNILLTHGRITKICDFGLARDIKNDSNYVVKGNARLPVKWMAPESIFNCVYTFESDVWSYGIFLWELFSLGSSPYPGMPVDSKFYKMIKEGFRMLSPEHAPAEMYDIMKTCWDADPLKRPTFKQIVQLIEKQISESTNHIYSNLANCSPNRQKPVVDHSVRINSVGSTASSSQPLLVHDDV
Method: as §1

CK2α1(h) = target: T7, CK2α1(h) (Homo sapiens, UniProt P68400)
T7 construct: gene CSNK2A1
T7 sequence (P68400 whole entry): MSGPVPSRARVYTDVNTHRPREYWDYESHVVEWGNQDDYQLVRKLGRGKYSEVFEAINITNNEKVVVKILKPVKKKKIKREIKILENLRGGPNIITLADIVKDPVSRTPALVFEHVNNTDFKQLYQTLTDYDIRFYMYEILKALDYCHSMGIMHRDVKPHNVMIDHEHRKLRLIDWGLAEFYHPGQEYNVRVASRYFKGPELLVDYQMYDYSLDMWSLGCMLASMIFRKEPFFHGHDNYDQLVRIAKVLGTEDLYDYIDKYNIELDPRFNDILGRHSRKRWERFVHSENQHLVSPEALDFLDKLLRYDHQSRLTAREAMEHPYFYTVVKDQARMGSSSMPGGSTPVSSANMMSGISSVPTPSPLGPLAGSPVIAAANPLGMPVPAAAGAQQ
Method: as §1

[1] = read-out: Residual activity (%) 5ay
[2] = read-out: Residual activity (%) Spautin-1 5aa
[3] = read-out: Residual activity (%) 5at
[4] = read-out: Residual activity (%) 5as

COc1ccc2ncnc(Nc3cccc(F)c3)c2c1 [5ay, N-(3-Fluorophenyl)-6-Methoxy-4-Quinazolinamine]
remaining activity at 10 µM (Abl (Q252H) (h); [1]): 80%
remaining activity at 10 µM (PAK1(h); [1]): 97%
remaining activity at 10 µM (ErbB4(h); [1]): 74%
remaining activity at 10 µM (GRK6(h); [1]): 110%
remaining activity at 10 µM (TSSK4(h); [1]): 134%
remaining activity at 10 µM (SAPK3(h); [1]): 101%
remaining activity at 10 µM (GRK7(h); [1]): 91%
remaining activity at 10 µM (HIPK3(h); [1]): 84%
remaining activity at 10 µM (TrkC(h); [1]): 114%
remaining activity at 10 µM (Ret(V804M)(h); [1]): 102%
remaining activity at 10 µM (cKit(V560G)(h); [1]): 106%

Fc1ccc(CNc2ncnc3ccc(F)cc23)cc1 [5aa, 6-Fluoro-N-(4-fluorobenzyl)-4-Quinazolinamine]
remaining activity at 10 µM (Abl (Q252H) (h); [2]): 104%
remaining activity at 10 µM (PAK1(h); [2]): 94%
remaining activity at 10 µM (ErbB4(h); [2]): 90%
remaining activity at 10 µM (CK2α1(h); [2]): 105%
remaining activity at 10 µM (GRK6(h); [2]): 100%
remaining activity at 10 µM (TSSK4(h); [2]): 89%
remaining activity at 10 µM (SAPK3(h); [2]): 106%
remaining activity at 10 µM (GRK7(h); [2]): 87%
remaining activity at 10 µM (HIPK3(h); [2]): 93%
remaining activity at 10 µM (TrkC(h); [2]): 111%
remaining activity at 10 µM (Ret(V804M)(h); [2]): 99%
remaining activity at 10 µM (cKit(V560G)(h); [2]): 85%

Fc1ccc2ncnc(NCCc3ccc(Cl)cc3)c2c1 [5at, N-[2-(4-Chlorophenyl)Ethyl]-6-Fluoro-4-Quinazolinamine]
remaining activity at 10 µM (Abl (Q252H) (h); [3]): 88%
remaining activity at 10 µM (PAK1(h); [3]): 90%
remaining activity at 10 µM (ErbB4(h); [3]): 79%
remaining activity at 10 µM (CK2α1(h); [3]): 78%
remaining activity at 10 µM (GRK6(h); [3]): 99%
remaining activity at 10 µM (TSSK4(h); [3]): 125%
remaining activity at 10 µM (SAPK3(h); [3]): 87%
remaining activity at 10 µM (GRK7(h); [3]): 93%
remaining activity at 10 µM (HIPK3(h); [3]): 95%
remaining activity at 10 µM (TrkC(h); [3]): 97%
remaining activity at 10 µM (Ret(V804M)(h); [3]): 73%
remaining activity at 10 µM (cKit(V560G)(h); [3]): 90%

Fc1ccc(CCNc2ncnc3ccc(F)cc23)cc1 [5as, 6-Fluoro-N-[2-(4-Fluorophenyl)Ethyl]-4-Quinazolinamine]
remaining activity at 10 µM (Abl (Q252H) (h); [4]): 104%
remaining activity at 10 µM (PAK1(h); [4]): 81%
remaining activity at 10 µM (ErbB4(h); [4]): 84%
remaining activity at 10 µM (CK2α1(h); [4]): 84%
remaining activity at 10 µM (GRK6(h); [4]): 104%
remaining activity at 10 µM (TSSK4(h); [4]): 112%
remaining activity at 10 µM (SAPK3(h); [4]): 114%
remaining activity at 10 µM (GRK7(h); [4]): 95%
remaining activity at 10 µM (HIPK3(h); [4]): 98%
remaining activity at 10 µM (TrkC(h); [4]): 104%
remaining activity at 10 µM (Ret(V804M)(h); [4]): 85%
remaining activity at 10 µM (cKit(V560G)(h); [4]): 105%
